Data: PubChem BioAssay (NCI)
Several values for one entry are separate records, joined by “and”; a condition that tells them apart may be missing. Equal entries are not always repeated.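 Cells were grown in 96-well plates and exposed to each compound for 48 hours at five concentrations; endpoints were interpolated linearly between bracketing concentrations, or set to the highest concentration if not reached. At the GI50, growth is halved. TGI marks complete inhibition of growth.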

Experiments:
Test in all cases: growth of human tumour cells (NCI), 48 h
M14 melanoma = system: M14 melanoma
DMS 273 small cell lung = system: DMS 273 small cell lung
LXFL 529 NSCLC = system: LXFL 529 NSCLC
M19-MEL melanoma = system: M19-MEL melanoma
UACC-62 melanoma = system: UACC-62 melanoma
HOP-92 NSCLC = system: HOP-92 NSCLC
SN12C renal = system: SN12C renal
A498 renal = system: A498 renal
NCI-H460 lung = system: NCI-H460 lung
DLD-1 colon = system: DLD-1 colon
MCF7 breast = system: MCF7 breast
HS 578T breast = system: HS 578T breast

Row | SMILES | TGI (M14 melanoma) | TGI (DMS 273 small cell lung) | TGI (LXFL 529 NSCLC) | TGI (M19-MEL melanoma) | TGI (UACC-62 melanoma) | TGI (HOP-92 NSCLC) | TGI (SN12C renal) | TGI (A498 renal) | TGI (NCI-H460 lung) | TGI (DLD-1 colon) | GI50 (M14 melanoma) | GI50 (MCF7 breast) | TGI (MCF7 breast) | GI50 (HS 578T breast) | TGI (HS 578T breast) | GI50 (UACC-62 melanoma) | GI50 (HOP-92 NSCLC) | GI50 (SN12C renal) | GI50 (A498 renal) | GI50 (NCI-H460 lung)
1 | O=C(CCC(=O)Nc1ccc(Cl)c(Cl)c1)Cc1nc2ccccc2o1 | > 100 µM | > 100 µM | > 100 µM | > 100 µM | > 100 µM | > 100 µM | > 100 µM | > 100 µM | > 100 µM |  |  |  |  |  |  |  |  |  |  | 
2 | Cc1cnc2ccc(C)c([N+](=O)[O-])c2c1NCCCN(C)C | > 100 µM | > 100 µM |  | > 100 µM |  |  | > 100 µM |  | > 100 µM |  |  |  |  |  |  |  |  |  |  | 
3 | Cc1c(C)c2ccc3oc4ccccc4c3c2oc1=O | > 100 µM |  | > 100 µM | > 100 µM | > 100 µM | > 100 µM | > 100 µM | > 100 µM | > 100 µM | > 100 µM |  |  |  |  |  |  |  |  |  | 
4 | COc1cc2cc(OC(C)=O)c3cc4c(cc3c2c(OC)c1OC)OCO4 | > 100 µM | > 100 µM | > 100 µM | > 100 µM |  |  | > 100 µM | > 100 µM | > 100 µM | > 100 µM |  |  |  |  |  |  |  |  |  | 
5 | CN(CCS(=O)(=O)N1C(=O)C2CCCN2C(=O)[C@@H]1Cc1ccccc1)C(=O)OCc1ccccc1 (some centres undefined) | > 100 µM |  | > 100 µM | > 100 µM | 95.7 µM | > 100 µM | > 100 µM | > 100 µM | > 100 µM | > 100 µM |  |  |  |  |  |  |  |  |  | 
6 | CC(=O)Nc1ccc(/C=C/C(=O)c2sc(-c3cccnc3)nc2C)cc1 |  | > 100 µM |  | > 100 µM | > 100 µM | > 100 µM | > 100 µM | > 100 µM | > 100 µM | > 100 µM |  |  |  |  |  |  |  |  |  | 
7 | COc1ccc(C(=O)C(CN(C)C)CN(C)C)cc1 | 13.5 µM |  |  |  | 19.4 µM | 9.84 µM | 56.4 µM | 32.7 µM | 40.1 µM |  | 3.53 µM | 2.73 µM | 12.3 µM | 17.3 µM | 56.3 µM | 5.27 µM | 2.4 µM | 12.6 µM | 18.6 µM | 19.2 µM
8 | CC(C)N(C(=O)C12C3C4C5(C#N)C3C1(C#N)C5C42C#N)C(C)C (centres undefined) |  | > 100 µM | > 100 µM | > 100 µM | > 100 µM |  | > 100 µM | > 100 µM | > 100 µM | > 100 µM |  |  |  |  |  |  |  |  |  | 
9 | Cc1nn(CNc2ccccc2C(F)(F)F)c(=S)n1/N=C/c1cccc2cccnc12 | > 100 µM |  |  |  | > 100 µM | > 100 µM | 72.7 µM | > 100 µM | > 100 µM |  | 57.9 µM | 54.9 µM | > 100 µM | > 100 µM | > 100 µM | 33.8 µM | 74.7 µM | 19.9 µM | > 100 µM | > 100 µM
10 | CCc1ccc(Oc2c(-c3ccc(OCc4ccc(Cl)cc4)cc3O)n[nH]c2C(F)(F)F)cc1 | 3.71 µM |  |  |  | 4.81 µM | 4.77 µM | 3.35 µM | 3.82 µM | 4.1 µM |  | 1.88 µM | 2 µM | 5.65 µM | 2.66 µM | 8.11 µM | 1.8 µM | 2.03 µM | 1.72 µM | 1.87 µM | 2.05 µM
11 | CC(=O)O[C@@H]1C2CCC3C(CC[C@@]4(C)C3CC[C@@H]4C(C)N(C)C)[C@@]2(C)CC[C@@H]1NC(=O)C=C(C)C (some centres undefined) | 3.63 µM |  |  |  | 3.96 µM | 10.7 µM | 12.3 µM | 9.78 µM | 3.31 µM |  | 1.85 µM | 1.67 µM | 4.38 µM | 2.2 µM | 6.82 µM | 2.03 µM | 1.66 µM | 3.2 µM | 2.32 µM | 1.67 µM
12 | C/C(=N\N=C(N)N)C(CN1CCCCC1)C(c1ccccc1)c1c(O)c2ccccc2oc1=O (centres undefined) | > 100 µM |  | > 100 µM | > 100 µM | > 100 µM | > 100 µM | > 100 µM | > 100 µM |  | > 100 µM |  |  |  |  |  |  |  |  |  | 
13 | Cc1ccc(O)c(NC(=O)c2cccc(Nc3ccnc(C(F)(F)F)c3)c2)c1 | 22.3 µM |  |  |  | 20.7 µM | 21.1 µM | 37.3 µM | 20.5 µM | 35.3 µM |  | 7.55 µM | 4.21 µM | 26.5 µM | 16.1 µM | 40.3 µM | 3.82 µM | 2.24 µM | 5.81 µM | 5 µM | 10.4 µM
14 | Oc1c(Cl)cc(Cl)c(Cl)c1CNCCNCc1c(O)c(Cl)cc(Cl)c1Cl | 26 µM |  |  |  | 5.45 µM | 10.3 µM | 17.9 µM | 17.3 µM | 7.52 µM |  | 1.22 µM | 1.12 µM | 14.5 µM | 5.32 µM | 27.9 µM | 0.917 µM | 1.66 µM | 2.02 µM | 3.03 µM | 0.44 µM
15 | O=c1c2c(nc3n1CCS3)[nH]c1cc([N+](=O)[O-])ccc12 | > 100 µM |  |  |  | > 100 µM | > 100 µM | > 100 µM | > 100 µM | > 100 µM |  | > 100 µM | 7.57 µM | 30.9 µM | > 100 µM | > 100 µM | > 100 µM | 67.9 µM | > 100 µM | > 100 µM | > 100 µM
16 | CC(C)C[C@H](NC(=O)CNC(=O)c1cc(Cl)ccc1Cl)B(O)O |  |  |  |  | 0.0457 µM | 0.165 µM | 0.39 µM | 0.0336 µM | 0.919 µM |  | 0.0202 µM | < 0.0196 µM | > 52.4 µM | 0.0489 µM | > 50.4 µM | < 0.0175 µM | 0.0231 µM | 0.0442 µM | < 0.0158 µM | 0.0831 µM
17 | C/C=C(\C)c1cc(=O)c2c(C)cc3c(c2o1)C(=O)c1c(O)c(C2CC(C)(N(C)C)C(OC(C)=O)C(C)O2)cc(C2CC(N(C)C)C(O)C(C)O2)c1C3=O (centres undefined) | 1.85 µM |  |  |  | 3.97 µM | 30.9 µM | 8.81 µM | 11.1 µM | 5.94 µM |  |  |  | 7.85 µM |  | 18.6 µM |  |  |  |  | 
18 | CC(C)(C)C1=CC(=C(P(=O)(O)O)P(=O)(O)O)C=C(C(C)(C)C)C1=O | > 50 µM | > 50 µM | > 50 µM | > 50 µM | > 50 µM | > 50 µM |  | > 50 µM | > 50 µM | > 50 µM |  |  |  |  |  |  |  |  |  | 
19 | CCOC(=O)Cc1c(C)c2cc(C(=O)c3ccccc3)c(O)cc2oc1=O | > 100 µM |  |  |  | > 100 µM | 58.8 µM | > 100 µM | 80.2 µM | > 100 µM |  |  |  | 63.9 µM |  | 97.1 µM |  |  |  |  | 
20 | COC1CCC(OS(C)(=O)=O)C(CO)O1 (centres undefined) | > 100 µM |  | > 100 µM | > 100 µM | > 100 µM | > 100 µM | > 100 µM |  | > 100 µM | > 100 µM |  |  |  |  |  |  |  |  |  | 
21 | COc1cc(/C=C/c2cc(/C=C/c3ccc(O)c(OC)c3)n(C(=O)c3ccc(Cl)cc3)n2)ccc1O | 15.2 µM |  |  |  | 10.1 µM | 22.2 µM | 13 µM | 9.6 µM | 20.4 µM |  | 1.5 µM | 2.43 µM | 16 µM | 3.23 µM | > 100 µM | 2.72 µM | 3.97 µM | 2.35 µM | 2.71 µM | 2.03 µM
22 | COc1ccc(Cc2c3cc(O)c(=O)cc-3ccn2C)cc1 | 30.5 µM | > 100 µM |  | 75 µM | 61 µM | > 100 µM | > 100 µM | > 100 µM | > 100 µM | > 100 µM |  |  |  |  |  |  |  |  |  | 
23 | NNC(=O)C(=O)N/N=C(\CCCC(=O)Nc1ccc(Cl)cc1)CC(=O)c1ccc(F)cc1 | > 100 µM |  | > 100 µM | > 100 µM | 78.5 µM | > 100 µM | > 100 µM | 88.6 µM | > 100 µM | > 100 µM |  |  |  |  |  |  |  |  |  | 
24 | C=CCNC(=O)NCCCCC(NC(C)=O)C(=O)NCc1ccccc1 (centres undefined) | > 100 µM | > 100 µM | > 100 µM | > 100 µM | > 100 µM | > 100 µM | > 100 µM | > 100 µM | > 100 µM |  |  |  |  |  |  |  |  |  |  | 
25 | CN[C@H]1CN(c2ccc3c(=O)c(C(=O)O)cn(-c4nccs4)c3n2)C[C@@H]1OC | 2.34 µM |  |  |  | 1.95 µM | 0.938 µM | 5.69 µM | 2.01 µM | 1.53 µM |  | 0.783 µM | 0.358 µM | 5.07 µM | 1.49 µM | 6.68 µM | 0.359 µM | 0.176 µM | 0.364 µM | 0.273 µM | 0.133 µM
26 | Oc1ccc(C=Nc2ccccc2O)cc1 | > 100 µM |  |  |  | > 100 µM | > 100 µM | > 100 µM | > 100 µM | > 100 µM |  |  |  | 90.8 µM |  | > 100 µM |  |  |  |  | 
27 | CC[C@H](C)[C@H](NC(=O)[C@H]1CCCCN1C)C(=O)N(C)[C@H](C[C@@H](OC(C)=O)c1cccc(C(=O)N[C@@H](Cc2ccccc2)C[C@H](C)C(=O)OC)n1)C(C)C | 0.0128 µM |  |  |  | > 25 µM |  | > 25 µM | 0.0166 µM | > 25 µM |  | 0.00227 µM | 0.000334 µM and 0.0025 µM | > 25 µM | 0.0423 µM and 0.00613 µM | > 25 µM | 0.000589 µM and 0.0025 µM | 0.000632 µM and 0.0025 µM | 0.00567 µM and 0.0113 µM | 0.00445 µM and 0.0025 µM | 0.0038 µM and 0.0025 µM
28 | CC1=N/C(=C/c2ccc3c(c2)OCO3)C(=O)O1 | > 100 µM | > 100 µM | > 100 µM | > 100 µM | > 100 µM | > 100 µM | > 100 µM | > 100 µM |  |  |  |  |  |  |  |  |  |  |  | 
